System: allergic bronchospasm and cough
Test: in vivo studies of allergic bronchospasm and cough

Clc1ccc2c(c1)CCc1cccnc1C2=C1CCNCC1 [desloratadine, Desloratadine]
effect on allergic bronchospasm and cough: inhibitory effect

Reference: patent US6709676B2, “Extended release oral dosage composition” (Schering Corporation, priority 1999, dated 2004)
